Laboratory results from patent publication US20110189297A1, “STABLE SOLID ORAL DOSAGE CO-FORMULATIONS” (Sequicia Pharmaceuticals, priority 2008, published 2011).

What was measured:
[1] = Inherent anti-retroviral activity
[2] = Pharmacokinetic study in beagle dogs, oral dry powder in capsules; assay type: in vivo
Method: A pharmacokinetic study was performed in beagle dogs to evaluate the performance of the oral dosage formulation prepared in Example 1 above. […] Both plasma levels and duration of exposure was increased.
The plasma exposure of the compound of Formula II from Compound II:EL100 (1:1) SDD powder alone was compared to co-administration with Atazanavir powder (FIG. 3). The ratio of the AUCs from mean plasma concentrations was 2.5, but the differences among individual animal was not statistically significant. The apparent increase in mean Compound II exposure came mostly later in the time course, after 8 hours.

[3] = Dissolution study of hand-filled capsules in simulated gastric fluid, HPLC; assay type: physicochemical; settings: capsule in 500 mL simulated gastric fluid
Method: Commercially available 200 mg Reyataz hard gelatin capsules (lot number 6E3004B) were emptied by hand to create a stockpile of Atazanavir (ATV) commercial powder. This commercially available 200 mg Reyataz capsule contains 200 mg ATV as Atazanavir sulphate plus 178 mg of excipients (crospovidone, lactose monohydrate and magnesium stearate) for a total weigh to of 378 mg. 189 mg of the stockpiled commercial powder (equivalent to 100 mg Atazanavir) was blended by tumbling in a glass vial with 100 mg of the spray-dried amorphous dispersion (SDD) of Compound II/EUDRAGIT L-100 (EL-100) where the Compound II:EL100 ratio was 1:1 (produced by Hovione FarmaCientia) and filled by hand into “0” hard gelatin capsules. Therefore, each hand-filled “0” hard gelatin capsule contained 100 mg ATV, […] of Compound II:EL100 (1:1) SDD and 89 mg of excipients. These capsules were dropped into 500 mL of simulated gastric fluid and the amounts of Compound II and ATV in the resulting suspension was determined by HPLC (see Table 1 and FIG. 1).

[4] = tested on: CYP3A; settings: human liver microsomes, in vitro; cited from earlier work

Structure (SMILES) | inherent anti-retroviral activity [1] | ratio of the AUCs from mean plasma concentrations of Compound II ([2]; 10 mg/kg Compound II from Compound II:EL100 (1:1) SDD with 20 mg/kg Atazanavir vs alone) | Cmax of Compound II, change on co-administration ([2]; Compound II:EL100 (1:1) SDD with Atazanavir vs alone) | % of maximal Compound II Conc. ([3]; 0 min) [%] | % of maximal Compound II Conc. ([3]; 5 min) [%] | % of maximal Compound II Conc. ([3]; 10 min) [%] | % of maximal Compound II Conc. ([3]; 15 min) [%] | % of maximal Compound II Conc. ([3]; 20 min) [%] | % of maximal Compound II Conc. ([3]; 25 min) [%] | % of maximal Compound II Conc. ([3]; 30 min) [%] | % of maximal ATV Conc. ([3]; 0 min) [%] | % of maximal ATV Conc. ([3]; 5 min) [%] | % of maximal ATV Conc. ([3]; 10 min) [%] | % of maximal ATV Conc. ([3]; 15 min) [%] | % of maximal ATV Conc. ([3]; 20 min) [%] | % of maximal ATV Conc. ([3]; 25 min) [%] | % of maximal ATV Conc. ([3]; 30 min) [%] | metabolising enzyme [4]
CO[C@H](CN(CC(C)C)S(=O)(=O)c1ccc2occc2c1)[C@H](Cc1ccccc1)NC(=O)OC(C)(C)C [Compound II] | no inherent anti-retroviral activity | 2.5 | slightly increased | 0 | 27.6 | 61.9 | 54.5 | 88.2 | 89.8 | 100.0 | – | – | – | – | – | – | – | –
COC(=O)N[C@H](C(=O)N[C@@H](Cc1ccccc1)[C@@H](O)CN(Cc1ccc(-c2ccccn2)cc1)NC(=O)[C@@H](NC(=O)OC)C(C)(C)C)C(C)(C)C.O=S(=O)(O)O [Atazanavir, Atazanavir sulfate, reference compound] | – | – | – | – | – | – | – | – | – | – | 0 | 88.9 | 93.4 | 100.0 | 99.4 | 99.1 | 97.9 | metabolized by CYP3A
